Experiment [1] relates to HEK293E cells. Kind of experiment: Preferred embodiment: transient IgG expression with p18 and p21 co-transfection, batch titer by ELISA. It is filed as cell-based, Human. The settings on record: day 14 after transfection. As to the method: 20 million suspension-adapted HEK293E cells were resuspended in 1 ml of Ex-Cell 293 HEK 293 serum-free medium with 4 mmol/l L-glutamine (Cat. No. 14571C-[…]; Lot No. 6A0093; SAFC Biosciences, Lenexa, Kans., USA, “Ex-Cell” medium; note: “Ex-Cell” medium-as used herein-refers to a medium comprising 4 mmol/l L-glutamine) in a 50-ml filter tube each (TPP AG, Trasadingen, Switzerland; Cat. No. 87050, Lot 20050174). Then 50 μg plasmid DNA at a concentration of 1 μg/μl was added in each tube with the following composition […] Plasmid p-LC comprises the genetic information for the production of the light chain of an IgG antibody, plasmid p-HC comprises the genetic information for the production of the heavy chain of an IgG antibody, plasmid p-p18 comprises the genetic information for the protein p18, and plasmid p-p21 comprises the genetic information for the protein p21. The particular vector constructs used in the present invention can also be obtained from the inventors. The inventors can be contacted via e-mail at […]. Moreover, commercial services do exist that produce any desired nucleotide sequence even comprising several kilobase pairs including complete expression cassettes in plasmid backgrounds (e.g., Invitrogen, Carlsbad, USA; Geneart, Germany.) Thus, providing the genetic sequence information of the plasmids should enable one of ordinary skill in the art to order the plasmids of the present invention at one of the commercial services listed. After shortly mixing the DNA with the cells by gentle shaking, 100 μg of 25-kd linear polyethyleneimine (“PEI”; Polysciences, Eppelheim, Germany; [2]) were added at a concentration of 1 μg/μl to each of the tubes. After shortly mixing by gentle shaking, the filter tubes containing the cells together with the DNA and PEI were transferred into an orbital shaker (Kühner Shaker Cabinet ISF-4-W, “Kühner shaker”, Kühner AG, Birsfelden, Switzerland), and the cells were incubated for 3 hours at 37° C. in a 5% CO2 atmosphere under shaking at 180 rpm. After that time, 4 ml of Ex-Cell medium were added to each of the filter tubes. […] No. B5887-1G; Sigma-Aldrich Chemie GmbH, Industriestrasse 25, CH-9471 Buchs SG) was added to the corresponding tubes at the corresponding final concentrations. […] The ELISA was performed as published in prior art. In short, Goat anti-human kappa light chain IgG (Biosource) was used for coating the ELISA-plates, and with AP-conjugated goat anti-human gamma chain IgG (Biosource) the synthesized IgG1 was detected. NPP was used as a substrate for the alkaline phosphatase. Absorption was measured at 405 nm against 490 nm using a microplate reader (SPECTRAmaxTM340; Molecular Devices, Palo Alto, Calif., USA).
For orientation: ELISA stands for enzyme-linked immunosorbent assay.

Experiment [2] relates to HEK293E cells. In words: Influence of temperature on IgG batch titer and comparison with sodium butyrate (Example 2). To be noted: day 5 after transfection. The class given is cell-based, Human. As to the method:
No. 14571C-[…]; Lot No. 6A0093; SAFC Biosciences, Lenexa, Kans., USA, “Ex-Cell” medium; note: “Ex-Cell” medium-as used herein-refers to a medium comprising 4 mmol/l L-glutamine) in a 50-ml filter tube each (TPP AG, Trasadingen, Switzerland; Cat. No. 87050, Lot 20050174). In a separate set, 10 million suspension-adapted CHO DG44 cells were resuspended in 0.5 ml of ProCHO5 serum-free medium with 4 mmol/[…] hypoxanthine and 0.194 g/l thymidine (BioWhittaker (Lonza), Belgium; Cat. No. BE12-[…]; Lot No. 7 MB0040; “ProCHO5” medium; note: “ProCHO5” medium-as used herein-refers to a medium comprising 4 mmol/[…] hypoxanthine and 0.194 g/l thymidine) in a 50-ml filter tube each (TPP AG, Trasadingen, Switzerland; Cat. No. 87050, Lot 20050174). Then 12.5 μg plasmid DNA at a concentration of 1 μg/μl was added in each tube with the following composition 50% (6.25 μg) p-LC (SEQ ID NO: 1) 50% (6.25 μg) p-HC (SEQ ID NO: 3). Plasmid p-LC comprises the genetic information for the production of the light chain of an IgG antibody, plasmid p-HC comprises the genetic information for the production of the heavy chain of an IgG antibody. The particular vector constructs used in the present invention can also be obtained from the inventors. The inventors can be contacted via e-mail at […]. Moreover, commercial services do exist that produce any desired nucleotide sequence even comprising several kilobase pairs including complete expression cassettes in plasmid backgrounds (e.g., Invitrogen, Carlsbad, USA; Geneart, Germany.) Thus, providing the genetic sequence information of the plasmids should enable one of ordinary skill in the art to order the plasmids of the present invention at one of the commercial services listed. After shortly mixing the DNA with the cells by gentle shaking, 25 μg of 25-kd linear polyethyleneimine (“PEI”; Polysciences, Eppelheim, Germany; [2]) were added at a concentration of 1 μg/μl to each of the tubes. After shortly mixing by gentle shaking, the filter tubes containing the cells together with the DNA and PEI were transferred into an orbital shaker (Kühner Shaker Cabinet ISF-4-W, “Kühner shaker”, Kühner AG, Birsfelden, Switzerland), and the cells were incubated for 4 hours at 37° C. in a 5% CO2 atmosphere under shaking at 180 rpm. After that time, 4.5 ml of Ex-Cell medium were added to each of the filter tubes containing HEK 293 cells and 4.5 ml of Pro-CHO5 were added to each of the filter tubes containing CHO DG44 cells. […] No. […] Sigma-Aldrich Chemie GmbH, Industriestrasse 25, CH-9471 Buchs SG) was added to the corresponding tubes at the corresponding final concentrations. The cells then were returned into the Kühner shaker. Half the tubes were incubated at 37° C. in a 5% CO2 atmosphere under shaking at 180 rpm, the other half was incubated at 31° C. […] The ELISA was performed as published in prior art. In short, Goat anti-human kappa light chain IgG (Biosource) was used for coating the ELISA-plates, and with AP-conjugated goat anti-human gamma chain IgG (Biosource) the synthesized IgG1 was detected. NPP was used as a substrate for the alkaline phosphatase. Absorption was measured at 405 nm against 490 nm using a microplate reader (SPECTRAmaxTM340; Molecular Devices, Palo Alto, Calif., USA).

A further experiment has as its system CHO cells. In words: Stable cell lines, IgG batch titer by ELISA (Example 5). The class given is cell-based, Chinese Hamster. The settings on record: 0.5 mmol/l final VPA; stable mass culture; 5 days after VPA addition.
[3] abbreviates: 3.8 mmol/l VPA, relative to control = 1.

For the compound `CCCC(CCC)C(=O)O` [VPA, valproic acid], the Batch titer with HEK293E cells [1] (3.8 mmol/l VPA, IgG with p18 and p21) came out at 962 ± 73 mg/L. In the experiment on HEK293E cells [1] (3.8 mmol/l VPA), the “Fold increase over control” value turned out to be 13.2 fold. The “batch titers compared to adding sodium butyrate” value with HEK293E cells [1] is given as “higher”. For the same compound, in the experiment with HEK293E cells [2] (setting [3]), the “Batch titer increase at 31° C.” value was found to be 5.3 ± 0.4 and the “Batch titer increase at 37° C.” value was 5.3 ± 0.5. For the same compound, in the experiment with HEK293E cells [2] (31° C. and 37° C.), the “performance compared with sodium butyrate (batch titer increase)” value is listed as “slightly better performance than sodium butyrate”. The “Batch titer CHO” value with CHO cells stood at 35.5 ± 2.5 mg/L.

Source of the values: patent US20090023186A1, “USE OF VALPROIC ACID FOR ENHANCING PRODUCTION OF RECOMBINANT PROTEINS IN MAMMALIAN CELLS” (EXCELLGENE SA, priority 2007, published 2009).
